Earlier results in patent publication US10941351B2, “Layer-separation method of spent caustic solution” (SK Innovation Co., Ltd., priority 2016, dated 2021).

Conditions: at 25° C.

## CCCCCCCCO [n-Octanol, n-octanol]
  Water solubility: 0.46 mg/mL
